Measured values: US20070282004A1, “Use of a Cyclopentenone Prostaglandin for Delaying for the Onset and/or Preventing the Continuation of Labour” (Imperial College Innovations Limited, priority 2003, published 2007)
Residues, ends and D or L forms follow the SMILES beside them. *: point of attachment. Cbz = O=C(OCc1ccccc1)*

Key:
NF-κB [1] = experiment: Western immunoblot of p65, p50, IκB in myometrial cell extracts; assay type: cell-based, human; conditions: myometrial cells, IL-1β 15 min
Method: (§1) Western immunoblots of nuclear or cytosolic protein extracts from (A) myometrial cells, (B) L− amnion cells, and (C) L+ amnion cells treated with 15dPGJ2 or vehicle for 2 h±IL-1β stimulation (15 min). Blots probed with antibodies against p65, p50 or IκBα.
Western immunoblots of nuclear or cytosolic protein extracts from myometrial cells treated with PGA1 or vehicle for 2 h followed by IL-1β stimulation (15 min). Blots probed with antibodies against p65 or IκBa.
Western immunoblots of cytosolic extracts from myometrial cells (A) treated with 15dPGJ2 for 2h±IL1b for 15 min; probed for IKK, and (B) treated with […] 15dPGJ2, […] MG132 or vehicle for 2 h, ±IL-1β for 15 min; probed for IκBα.
(A) NF-κB-DNA binding was measured by EMSA in nuclear protein extracts from myometrial cells pre-treated with vehicle, 15d-PGJ2 or PGA1 for 2 h, followed by stimulation with IL-1β (1 ng/ml) for 15 min. Antibodies against p50 and p65 were used for supershift analysis. (B) Myometrial cells were transiently transfected with a NF-κB-LUC reporter and a β-gal reporter plasmid, pre-treated with vehicle or PGA1 for 2 h, and stimulated with IL-1β (1 ng/ml) for 6 h. Luciferase activity was normalized for β-gal reporter readout. Values are presented as the mean±SEM obtained for each treatment done in triplicate. Western blot analysis of nuclear p65 and p50 expression in myometrial cells treated with (C) PGA1 or (D) 15d-PGJ2 for 2 h, followed by stimulation with IL-1β (1 ng/ml) for 15 min. (E) Western blot analysis of whole cell lysates from myometrial cells treated with 15d-PGJ2 or 9,10-dihydro-15d-PGJ2 for 2 h, followed by stimulation with IL-1β (1 ng/ml) for 15 min. Membranes were probed with antibodies against p65 and Ser 536-phosphorylated p65.
(§2) Myometrial tissue was collected at term from the upper margin of uterine incision at the time of lower segment caesarean section either prior to the onset of labour (L−) or […] (L+). L+ samples were collected by Dr Mark Johnson and Dr S Soorrana at Chelsea & Westminster Hospital. Myometrial tissue was dissected, rinsed in PBS, and digested in serum-free DMEM containing 15 mg/ml collagenase 1A (Sigma), 15 mg/ml collagenase X, and 50 mg/ml bovine serum albumin for 45 min at 37° C. The cell suspension was filtered through a cell strainer, centrifuged at 400 g for 5 min, and the pellet re-suspended and plated out in DMEM, 10% FCS (Helena BioScience), 1% L-glutainine, 1% penicillin-streptomycin. Cells were used between passage numbers 1-4.
(§3) Nuclear and cytosolic protein extracts were obtained from cultured amnion cells as described by Schreiber et al (1989). For nuclear/cytosolic fractionation, confluent cell monolayers were scraped and lysed using a buffer containing 10 mM HEPES, 10 mM KCl, 0.1 mM EDTA, 0.1 mM EGTA, 2 mM DTT, 1% (v/v) NP-40 and complete protease inhibitor tablets (CPIs, Roche), diluted to manufacturer's instructions. Cell lysates were incubated on ice for 10 min and NP-40 added to a final concentration of 1% (v/v). Lysates were vortexed for 10 secs and centrifuged for 30 secs at 4° C., 12000 g. The supernatants were retained as the cytosolic protein extracts. The pellets were resuspended in buffer containing 10 mM HEPES, 10 mM KCl, 0.1 mM EDTA, 0.1 mM EGTA, 2 mM DTT, 400 mM NaCl, 1% NP-40 (v/v) and CPIs. Samples were shaken vigorously for 15 min in an ice bath. The nuclear protein extracts were obtained in the supernatant following a 5 min centrifugation at 4° C., 12000 g.
Protein samples (20-70 μg) were mixed with Laemmli sample buffer (1:1) containing β-mercaptoethanol (5%), and boiled for 5 min. Proteins were then separated by SDS-PAGE (12-14% gels) and transferred onto PVDF membrane (Amersham Pharmacia Biotech). The membranes were blocked overnight in 5% non-fat milk prepared in PBS-T buffer, at 4° C. The blots were incubated with the primary antibody in 1% non-fat milk in PBS-T buffer for 1 h, and washed three times (10 min each) in PBS-T with vigorous shaking. […]

PPAR-γ = target: T1, PPAR-γ (Homo sapiens, UniProt P37231); conditions: as stated from the literature; cited from earlier work
T1 sequence (P37231 1-505): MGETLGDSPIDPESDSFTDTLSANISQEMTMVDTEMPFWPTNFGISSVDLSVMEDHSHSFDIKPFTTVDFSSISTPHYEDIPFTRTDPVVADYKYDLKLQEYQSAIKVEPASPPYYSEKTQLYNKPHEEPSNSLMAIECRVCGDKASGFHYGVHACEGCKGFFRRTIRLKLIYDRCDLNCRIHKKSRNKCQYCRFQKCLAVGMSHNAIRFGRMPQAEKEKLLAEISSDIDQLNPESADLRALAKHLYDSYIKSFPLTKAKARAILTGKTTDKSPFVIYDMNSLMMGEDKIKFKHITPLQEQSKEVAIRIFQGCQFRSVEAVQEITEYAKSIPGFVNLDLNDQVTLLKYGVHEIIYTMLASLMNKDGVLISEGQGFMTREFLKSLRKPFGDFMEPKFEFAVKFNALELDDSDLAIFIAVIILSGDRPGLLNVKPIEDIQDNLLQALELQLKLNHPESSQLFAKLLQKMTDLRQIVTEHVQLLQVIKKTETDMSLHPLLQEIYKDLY

NF-κB [2] = target: T2, NF-κB (Homo sapiens, UniProt P19838+Q04206); experiment: EMSA of NF-κB DNA binding in nuclear extracts of treated amnion cells; assay type: cell-based
T2 construct: nuclear protein extracts from myometrial cells; endogenous in cells; host or cells: primary human myometrial cells (term, passage 1-4)
Method: (§4) Placentae were obtained from patients at term either at elective Caesarean section prior to labour (L−) or following spontaneous labour onset and vaginal delivery (L+). Amnion cells were prepared as described in Bennett et al., (1989). Briefly, the amnion was separated from the placenta, washed 3× in PBS, cut into strips, and incubated in 0.5 mM EDTA in PBS for 15 min. The strips were washed in PBS 2× and digested with 2.5 mg/ml dispase in serum-free DMEM for 35 min at 37° C. The amnion was then shaken vigorously in DMEM, 10% FCS to dissociate the cells, the remaining strips discarded, and the cell suspension pelleted at 175 g for 10 min and cultured in DMEM, 10% FCS (Sigma), 1% L-glutamine, 1% penicillin-streptomycin.
as §3
(§5) Sense and antisense strands (175 nmole/ml each) were incubated in annealing buffer (10 mM Tris-HCl pH7.5, 100 mM NaCl, 1 mM EDTA) for 10 min at 65° C., and allowed to cool at room temperature for 2 h. 3.5 pmole double-stranded oligonucleotides were end-labelled with 0.37 MBq ^32P(γATP) by incubating for 30 min at 37° C. with T4 polynucleotide kinase. Labelled oligonucleotides were recovered by centrifugation at 3000 rpm for 2 min through MicroSpin G-25 or G-50 sephadex columns (Amersham Biosciences).
(§6) 3-5 μg protein extracts were incubated on ice for 1 h with non-radiolabelled non-specific oligonucleotide (poly(dI-dC) or Oct-1) in a binding buffer (20% (v/V) glycerol, 5 mM MgCl2, 2 mM EDTA, 50 mM Tris-HCl pH7.5, 250 mM NaCl, 2 mM DTT), followed by a 45 min incubation with 0.035 pmole ^32P(γ(ATP)-end labelled oligonucleotide probes:
(§7) Oct-1 or SP-1 consensus sequences were used as a controls for a NF-κB-specific effect. The resulting protein/DNA complexes were separated in a 4% acrylamide gel, the gel dried under vacuum at 80° C. and exposed to X-ray film. For supershift analysis, samples were incubated with 2 μg antibodies for 30 min on ice prior to incubation with oligonucleotides. Non-radio-labelled oligonucleotides were used at 100-fold molar excess for specific and non-specific competition for DNA binding. Reagents for EMSA were obtained from Promega Life Sciences, Delta House, Chilworth Research Centre, Southampton SO16 7NS, United Kingdom.

NF-κB [3] = experiment: Western immunoblot of p65, p50, IκB in amnion cell extracts; assay type: cell-based, human; conditions: L−, L+ amnion cells, treated 2 h, IL-1β 15 min
Method: as §1, §4, §3
Protein samples (20-70 μg) were mixed with Laemmli sample buffer (1:1) containing β-mercaptoethanol (5%), and boiled for 5 min. Proteins were then separated by SDS-PAGE (12-14% gels) and transferred onto PVDF membrane (Amersham Pharmacia Biotech). The membranes were blocked overnight in 5% non-fat milk prepared in PBS-T buffer, at 4° C. The blots were incubated with the primary antibody in 1% non-fat milk in PBS-T buffer for 1 h, and washed three times (10 min each) in PBS-T with vigorous shaking. The blots were then incubated with HRP-conjugated secondary antibody (diluted 1:2000 in 1% non-fat milk in PBS-T buffer) for 1 h and washed three times (10 min each) in PBS-T. Signal detection was achieved using enhanced chemi-luminescence (ECL plus system, Amersham Pharmacia Biotech) according to manufacturer's instructions.
30-50 μg protein extracts were subjected to SDS-PAGE and Western immuno-blotting. Secondary antibodies were IgG-HRP and ECL Plus detection kit (Amersham Pharmacia Biotech, Amersham Place, Little Chalfont, Bucks, HP7 9NA) was used for visualisation.

NF-κB [4] = target: T2, NF-κB; experiment: EMSA of NF-κB DNA binding in nuclear extracts of treated myometrial cells; assay type: cell-based; conditions: myometrial cells; for Stimulation of NF-κB activity / induction of NFκB DNA binding by the compound alone: no cytokine; for IL-1β-induced NF-κB DNA binding (EMSA): then IL-1β 15 min
Method: as §2, §3, §5, §6, §7

NF-κB [5] = experiment: NF-κB-dependent luciferase reporter (κB.BG.Luc) in myometrial cells; assay type: cell-based, human; conditions: treated 2 h, IL-1β 1 ng/ml 6 h
Method: Myometrial cells were transiently transfected with the NFκB-dependent reporter construct κB.BG.Luc, treated with 15dPGJ2 or vehicle for 2 h, ±IL-1β (1 ng/ml) for 6 h. […] Values are normalised for b-gal reporter activity. (NS=nonstimulated).
Myometrial cells were transfected with […] κB.BG.Luc reporter and 200 ng PPAR-γ expression vector and treated with 15d-PGJ2 for 2 h followed by IL-1β (1 ng/ml) for 6 h. Values are normalised for β-galactosidase reporter activity. (NS=nonstimulated).
as §2
pGL3.6κB.BG.luc: a NF-κB-dependent reporter construct with 6 copies of the NF-κB binding site.
Cells were co-transfected with the renilla vector pRL-CMV or β-galactosidase vector pCH110 as internal controls for transfection efficiencies.

[6] = test system: contractions of pre-term labour; conditions: people; cited from earlier work
[7] = test system: ductus arteriosus, fetal urine output; conditions: in vivo; cited from earlier work
NF-κB [8] = experiment: NF-κB-dependent luciferase reporter (κB.BG.Luc) in myometrial cells; assay type: cell-based, human; conditions: 200 ng PPAR-γ expression vector, 10 mM troglitazone 7 h, IL-1β 17 h

T2 sequence (Q04206 whole entry): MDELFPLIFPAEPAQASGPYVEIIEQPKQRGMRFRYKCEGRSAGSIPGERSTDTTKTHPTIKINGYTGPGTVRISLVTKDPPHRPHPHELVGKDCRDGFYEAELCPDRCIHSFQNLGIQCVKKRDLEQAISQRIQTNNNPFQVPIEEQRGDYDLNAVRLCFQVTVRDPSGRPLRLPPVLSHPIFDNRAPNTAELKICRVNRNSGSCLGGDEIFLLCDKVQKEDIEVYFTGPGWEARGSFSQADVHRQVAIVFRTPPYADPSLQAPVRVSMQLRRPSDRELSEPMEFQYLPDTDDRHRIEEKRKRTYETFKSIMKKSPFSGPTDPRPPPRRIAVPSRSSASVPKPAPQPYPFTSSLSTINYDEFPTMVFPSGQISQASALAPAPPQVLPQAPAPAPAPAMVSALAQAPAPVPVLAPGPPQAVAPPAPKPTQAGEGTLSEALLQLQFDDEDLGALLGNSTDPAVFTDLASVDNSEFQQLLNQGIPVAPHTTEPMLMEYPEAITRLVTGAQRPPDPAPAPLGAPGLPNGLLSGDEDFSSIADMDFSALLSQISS
T2 sequence (P19838 1-433 limits assumed): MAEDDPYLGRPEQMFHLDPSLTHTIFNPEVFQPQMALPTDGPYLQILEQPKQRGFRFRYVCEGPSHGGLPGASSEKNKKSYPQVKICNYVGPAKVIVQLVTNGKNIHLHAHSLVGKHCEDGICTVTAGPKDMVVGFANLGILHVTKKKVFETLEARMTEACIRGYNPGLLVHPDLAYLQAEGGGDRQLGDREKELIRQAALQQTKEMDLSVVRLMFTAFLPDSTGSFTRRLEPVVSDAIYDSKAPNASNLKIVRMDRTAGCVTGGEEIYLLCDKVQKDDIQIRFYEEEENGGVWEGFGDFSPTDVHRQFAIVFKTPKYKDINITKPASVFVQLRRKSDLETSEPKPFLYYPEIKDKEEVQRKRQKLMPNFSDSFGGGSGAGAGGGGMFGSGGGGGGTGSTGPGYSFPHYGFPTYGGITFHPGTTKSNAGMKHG

## CCCCCC=CC=C1CCC(=O)C1CC=CCCCC(=O)O (centres unmarked) [9,10-dihydro-15d-PGJ2, 9,10-di-hydro-15-deoxy-Δ^12,14-Prostaglandin J2, reference compound]
NF-κB [1]; 2 h, similar in amnion epithelial cells
  Reproduction of the effects of 15d-PGJ2 on NF-κB (incl. Ser 536-phosphorylated p65): could not reproduce the effects
PPAR-γ
  PPAR agonist / ligand activity: retains PPARγ agonist activity

## CCCCC(C)(C)[C@H](O)/C=C/[C@H]1[C@H](O)CC(=O)[C@@H]1C/C=C\CCCC(=O)O [16,16-Dimethyl-PGE2, reference compound]
NF-κB [1]; treated 2 h
  IL-1β-induced p65 nuclear translocation: did not inhibit
NF-κB [2]; L− and L+ amnion cells, treated 2 h, then IL-1β 15 min
  IL-1β-induced NF-κB DNA binding (EMSA): did not inhibit
NF-κB [3]
  IL-1β-induced p65 nuclear translocation: did not inhibit
NF-κB [4]
  Synergy with IL-1β or TNFα on NF-κB activity: nor did it synergise
  Stimulation of NF-κB activity / induction of NFκB DNA binding by the compound alone: neither did it stimulate
NF-κB [4]; treated 2 h
  IL-1β-induced NF-κB DNA binding (EMSA): did not inhibit

## CN(CCOc1ccc(C[C@H](Nc2ccccc2C(=O)c2ccccc2)C(=O)O)cc1)c1ccccn1 [GW1929, reference compound]
NF-κB [5]
  IL-1β-induced NF-κB transcriptional activity (κB.BG.Luc reporter): does not inhibit
NF-κB [4]; treated 2 h
  IL-1β-induced NF-κB DNA binding (EMSA): failed to inhibit

## COc1ccc2c(c1)c(CC(=O)O)c(C)n2C(=O)c1ccc(Cl)cc1 [Indomethacin]
[6]
  Tocolytic efficacy: effective in preventing the contractions

## CC(C)C[C@@H](C=O)NC(=O)[C@H](CC(C)C)NC(=O)[C@H](CC(C)C)NC(=O)OCc1ccccc1 [MG132, reference compound] (Cbz-Leu-Leu-Leu-aldehyde)
NF-κB [1]; 2 h
  Accumulation of phosphorylated IκBα: resulted in the accumulation

## CCCCC[C@H](O)/C=C/[C@H]1[C@H](O)CC(=O)[C@@H]1C/C=C\CCCC(=O)O [PGE2, prostaglandin E2, reference compound]
NF-κB [2]; L− amnion cells, no cytokine
  Induction of NFκB DNA binding by the compound alone: does not induce
PPAR-γ
  PPAR agonist / ligand activity: does not activate PPAR-γ
NF-κB [4]
  Stimulation of NF-κB activity / induction of NFκB DNA binding by the compound alone: does not induce
NF-κB [4]; treated 2 h, TNFα or IL-1β 15 min
  TNFα- and IL-1β-induced NFκB activation (EMSA, nuclear p65): does not inhibit

## CC1=C(CC(=O)O)c2cc(F)ccc2/C1=C\c1ccc([S+](C)[O-])cc1 (centres unmarked) [Sulindac]
[7]
  Effect on ductal patency: minimal effect
  Fetal urine output: smaller reduction
[6]
  Tocolytic efficacy: equally good

## Cc1c(C)c2c(c(C)c1O)CCC(C)(COc1ccc(CC3SC(=O)NC3=O)cc1)O2 (centres unmarked) [troglitazone]
NF-κB [8]
  NF-κB-dependent reporter in PPARγ-transfected cells: does not inhibit
